Here are results for one compound from patent publication US12533373B2, “β-glucan composition and use therefor” (Qingdao Conson Pharmaceutical Co., Ltd., priority 2019, dated 2026).

“And” between values parts separate entries of the source, which are not always exact repeats. Equal entries are not always repeated.

Test [1] concerns SW-480 human colon cancer transplanted tumors. Put plainly: nude mice transplanted tumor model, SW-480. It counts as in vivo, BALB/c nude mice. The note with it: 5-FU 18 mg/kg, tail vein, twice a week. The protocol:
The […] was resuscitated with liquid nitrogen and cultured in 5A medium containing 10% fetal bovine serum; the cells were expanded and cultured in culture flasks and collected by digestion after reaching the required cells number; the cells were diluted using 5A medium containing 10% fetal bovine serum into suspensions of 250 million cell/ml which was inoculated subcutaneously to the axilla of the right forelimb of each mouse with 0.2 ml per mouse after routine sterilization. When growing to tumors to about 1 g of tissue mass, the animal was sacrificed and the tumor was cut into 2-3 cubic millimeter pieces and implanted subcutaneously into nude mice for passaging by catheter method, and two consecutive passages were performed. HT-29, SW-480, DLD-1 and RKO cell lines listed in the table were modeled and experimented using the same method. Waiting for the tumors of the passaged tumor-bearing nude mice grown to about 1 g, the tumors were transplanted for modeling via the method described above, and the animals were randomly grouped and administration was started on the next day after transplantation.
The animals were grouped using the random grouping method, 8 animals each group.
The route of administration is via tail vein injection, and the amount of administration for each animal was determined based on the latest body weight prior to administration. […]

For test [2], the system named is Mouse lung cancer Lewis cells. Put plainly: mouse Lewis lung cancer residual cancer model. The class given is in vivo, C57BL/6 mice. The note with it: 5-FU 18 mg/kg. The method, then:
Mouse lung cancer Lewis cells were amplified by culturing in DMEM high sugar medium containing 10% FBS. The cells were ready for the next step when entering the logarithmic growth phase. The cells at logarithmic growth phase were collected by centrifugation and counted. The cell concentration was adjusted and inoculated subcutaneously at 0.2 ml/mouse in the right axilla of C57BL/6 mice as breeder mouse. After grew to over 1000 mm^3, the tumors were removed aseptically, weighed, diluted by adding sodium chloride injection with mass to volume ratio of 1:4 and […], after conventional sterilization, inoculated subcutaneously to the axilla of the right forelimb of each mouse with 0.2 ml per mouse for passaging. After grew to over 1000 mm^3, the second generation tumors were taken aseptically, weighed, diluted by adding sodium chloride injection with mass to volume ratio of 1:4 and ground, and then inoculated subcutaneously to the back of mice at 0.2 ml per mouse after routine sterilization. The growths of mice were observed after inoculation, and screened according to the growth state of mice, and after screening, the mice were grouped randomly and administered.

Test [3] concerns S180 mouse fibrosarcoma cells. Put plainly: murine S180 sarcoma residual carcinoma model. The class given is in vivo, Kunming mice. The note with it: 5-FU 18 mg/kg. The method, then: S180 mouse fibrosarcoma cells were amplified by culturing in DMEM high sugar medium containing 10% FBS. The cells were ready for the next step when entering the logarithmic growth phase. The cells at logarithmic growth phase were collected by centrifugation and counted. The cell concentration was adjusted, and inoculated at 0.2 ml/mouse into the peritoneal cavity of Kunming mice as the first-generation breeder mouse. After rearing for one week, the ascites in peritoneal cavity of the first-generation breeder mouse were taken for centrifugation and count, the cell concentration was adjusted, and inoculated at 0.2 ml/mouse into the peritoneal cavity of Kunming mice as the second-generation breeder mouse, and after rearing for another week, the ascites in peritoneal cavity of the second-generation breeder mouse were taken for centrifugation and count, the cell concentration was adjusted, and inoculated at 0.2 ml/mouse into subcutaneous back of Kunming mice. The whole inoculation process was carried out aseptically in the ultra-clean workstation. After inoculation, the growth of mice was observed, and the mice were screened according to their growth state, and after screening, the mice were grouped randomly and administered.

Regarding `O=c1[nH]cc(F)c(=O)[nH]1` [Example 5-FU, Fluorouracil], the Inhibition rate is 57.91% in test [1]; 85.30% and 66.85% in test [3]. Further, the Tumor weight was 0.43 g in test [1]; 1.29 g and 1.24 g in test [2].
